From US7605174B2, “Indane derivatives as modulators of ion channels” (Vertex Pharmaceuticals Incorporated, priority 2005, dated 2009)

Target: T1, NaV1.3 (Homo sapiens, UniProt Q9NY46)
Assay: not given
Conditions: read-out: TTX IC50; cited from earlier work
Target sequence in this assay (Q9NY46 whole entry, looked up): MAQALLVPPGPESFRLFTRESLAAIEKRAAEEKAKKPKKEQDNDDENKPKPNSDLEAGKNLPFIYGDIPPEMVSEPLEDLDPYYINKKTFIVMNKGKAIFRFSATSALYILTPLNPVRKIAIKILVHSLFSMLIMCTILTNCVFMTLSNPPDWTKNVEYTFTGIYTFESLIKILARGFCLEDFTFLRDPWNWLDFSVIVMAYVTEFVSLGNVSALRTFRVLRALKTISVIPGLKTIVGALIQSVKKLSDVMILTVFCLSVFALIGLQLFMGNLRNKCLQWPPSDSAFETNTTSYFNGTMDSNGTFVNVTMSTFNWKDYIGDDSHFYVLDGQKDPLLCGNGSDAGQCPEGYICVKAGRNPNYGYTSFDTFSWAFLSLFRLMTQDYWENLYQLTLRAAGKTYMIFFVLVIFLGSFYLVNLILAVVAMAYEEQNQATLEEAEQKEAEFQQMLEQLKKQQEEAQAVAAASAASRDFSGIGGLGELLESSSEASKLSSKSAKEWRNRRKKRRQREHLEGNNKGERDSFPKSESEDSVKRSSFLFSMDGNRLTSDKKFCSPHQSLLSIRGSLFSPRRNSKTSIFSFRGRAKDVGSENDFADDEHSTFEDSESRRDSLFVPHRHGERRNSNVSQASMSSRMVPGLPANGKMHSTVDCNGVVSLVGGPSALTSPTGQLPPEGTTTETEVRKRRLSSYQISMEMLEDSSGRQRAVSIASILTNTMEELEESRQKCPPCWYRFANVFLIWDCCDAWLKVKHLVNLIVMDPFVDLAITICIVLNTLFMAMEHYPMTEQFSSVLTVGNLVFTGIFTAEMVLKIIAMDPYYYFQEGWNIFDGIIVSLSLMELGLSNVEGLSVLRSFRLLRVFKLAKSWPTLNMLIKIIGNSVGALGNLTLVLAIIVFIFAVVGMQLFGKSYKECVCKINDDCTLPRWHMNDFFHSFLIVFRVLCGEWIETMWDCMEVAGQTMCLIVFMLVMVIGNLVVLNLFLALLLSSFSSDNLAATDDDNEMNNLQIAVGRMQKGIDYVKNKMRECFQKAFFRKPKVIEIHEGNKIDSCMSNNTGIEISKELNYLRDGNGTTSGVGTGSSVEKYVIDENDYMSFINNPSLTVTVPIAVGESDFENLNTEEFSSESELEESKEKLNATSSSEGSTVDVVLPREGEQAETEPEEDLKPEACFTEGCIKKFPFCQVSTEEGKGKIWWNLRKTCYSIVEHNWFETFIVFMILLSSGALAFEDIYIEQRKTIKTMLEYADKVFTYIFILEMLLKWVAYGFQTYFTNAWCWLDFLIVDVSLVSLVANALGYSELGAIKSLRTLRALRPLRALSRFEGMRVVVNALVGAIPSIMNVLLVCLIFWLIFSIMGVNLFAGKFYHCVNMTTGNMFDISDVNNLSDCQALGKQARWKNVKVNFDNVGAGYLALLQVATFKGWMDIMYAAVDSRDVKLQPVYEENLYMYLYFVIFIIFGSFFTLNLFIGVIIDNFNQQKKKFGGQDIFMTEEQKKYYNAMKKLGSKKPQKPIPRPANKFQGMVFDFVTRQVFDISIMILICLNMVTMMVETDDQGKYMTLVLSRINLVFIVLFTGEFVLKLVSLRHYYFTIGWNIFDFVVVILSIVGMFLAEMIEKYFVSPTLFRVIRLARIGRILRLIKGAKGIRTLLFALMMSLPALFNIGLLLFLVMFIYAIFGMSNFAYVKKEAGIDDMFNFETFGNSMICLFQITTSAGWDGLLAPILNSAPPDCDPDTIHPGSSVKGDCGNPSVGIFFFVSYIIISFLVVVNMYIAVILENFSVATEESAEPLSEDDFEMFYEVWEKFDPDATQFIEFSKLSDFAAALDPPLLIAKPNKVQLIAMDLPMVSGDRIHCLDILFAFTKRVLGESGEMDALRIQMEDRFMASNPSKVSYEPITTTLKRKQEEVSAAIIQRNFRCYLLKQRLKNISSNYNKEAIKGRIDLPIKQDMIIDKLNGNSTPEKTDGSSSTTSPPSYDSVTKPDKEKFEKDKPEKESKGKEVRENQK

Row | SMILES | IC50
1 | NC1=N[C@H](O)[C@H]2[C@H]3O[C@]4(O)O[C@@H]([C@@H](O)[C@@]2(N1)[C@@H]4O)[C@]3(O)CO [TTX, tetrodotoxin] | 15 nM

Test system: not given
Assay: not given
Conditions: in vivo; cited from earlier work

Row | SMILES | patients in whom the drug works
2 | NCC1(CC(=O)O)CCCCC1 [Gabapentin] | 60%

Target: T1, NaV1.3
Assay: Activity against NaV 1.3 channel (optical membrane potential assay, electrical stimulation)
Format: cell-based
Set-up: expressed in transfected cells; host or cells: HEK293
Conditions: not given
Protocol: Compounds of the invention are useful as antagonists of voltage-gated sodium ion channels. Antagonist properties of test compounds were assessed as follows. Cells expressing the NaV of interest were placed into microtiter plates. After an incubation period, the cells were stained with fluorescent dyes sensitive to the transmembrane potential. The test compounds were added to the microtiter plate. The cells were stimulated with either a chemical or electrical means to evoke a NaV dependent membrane potential change from unblocked channels, which was detected and measured with trans-membrane potential-sensitive dyes. Antagonists were detected as a decreased membrane potential response to the stimulus. The optical membrane potential assay utilized voltage-sensitive FRET sensors described by Gonzalez and Tsien (See, Gonzalez, J. E. and R. Y. Tsien (1995) “Voltage sensing by fluorescence resonance energy transfer in single cells” Biophys J 69(4): 1272-80, and Gonzalez, J. E. and R. Y. Tsien (1997) “Improved indicators of cell membrane potential that use fluorescence resonance energy transfer” Chem Biol 4(4): 269-77) in combination with instrumentation for measuring fluorescence changes such as the Voltage/Ion Probe Reader (VIPR®) (See, Gonzalez, J. E., K. Oades, et al. (1999) “Cell-based assays and instrumentation for screening ion-channel targets” Drug Discov Today 4(9): 431-439).
The following is an example of how NaV1.3 inhibition activity is measured using the optical membrane potential method#2. Other subtypes are performed in an analogous mode in a cell line expressing the NaV of interest.
HEK293 cells stably expressing NaV1.3 are plated into 96-well microtiter plates. After an appropriate incubation period, the cells are stained with the voltage sensitive dyes CC2-DMPE/DiSBAC2(3) as follows.
2×CC2-DMPE=20 μM CC2-DMPE: 10 mM CC2-DMPE is vortexed with an equivalent volume of 10% pluronic, followed by vortexing in required amount of HBSS containing 10 mM HEPES. Each cell plate will require 5 mL of 2×CC2-DMPE. 50 μL of 2×CC2-DMPE is to wells containing washed cells, resulting in a 10 μM final staining concentration. The cells are stained for 30 minutes in the dark at RT.
2×DISBAC2(3) with ABSC1=6 μM DISBAC2(3) and 1 mM ABSC1: The required amount of 10 mM DISBAC2(3) is added to a 50 ml conical tube and mixed with 1 μL 10% pluronic for each mL of solution to be made and vortexed together. Then HBSS/HEPES is added to make up 2× solution. Finally, the ABSC1 is added.
The 2×DiSBAC2(3) solution can be used to solvate compound plates. Note that compound plates are made at 2× drug concentration. Wash stained plate again, leaving residual volume of 50 μL. Add 50 uL/well of the 2×DiSBAC2(3) w/ABSC1. Stain for 30 minutes in the dark at RT.
The electrical stimulation instrument and methods of use are described in ION Channel Assay Methods PCT/US01/21652, herein incorporated by reference. The instrument comprises a microtiter plate handler, an optical system for exciting the coumarin dye while simultaneously recording the coumarin and oxonol emissions, a waveform generator, a current- or voltage-controlled amplifier, and a device for inserting electrodes in well. Under integrated computer control, this instrument passes user-programmed electrical stimulus protocols to cells within the wells of the microtiter plate.
• 1. Insert or use electrodes into each well to be assayed. • 2. Use the current-controlled amplifier to deliver stimulation wave pulses for 3 s. Two seconds of pre-stimulus recording are performed to obtain the un-stimulated intensities. Five seconds of post-stimulation recording are performed to examine the relaxation to the resting state.
Data are analyzed and reported as normalized ratios of background-subtracted emission intensities measured in the 460 nm and 580 nm channels. Background intensities are then subtracted from each assay channel. […]
Target sequence in this assay (Q9NY46 whole entry): as the sequence (Q9NY46 whole entry, looked up) above

Row | SMILES | IC50
3 | O=C(NC1Cc2ccc(S(=O)(=O)Nc3nccs3)cc2C1)Oc1cccc(C(F)(F)F)c1 (stereo not shown) [Compound 1] | < 2000 nM
4 | O=C(NC1Cc2ccc(S(=O)(=O)Nc3nccs3)cc2C1)Oc1ccc(Cl)cc1 (stereo not shown) [Compound 11] | < 2000 nM

Same assay, conditions: NaV 1.3 channel; read-out: IC50

Row | SMILES | IC50
5 | O=C(COc1ccc(F)c(Cl)c1)NC1Cc2ccc(S(=O)(=O)Nc3nccs3)cc2C1 (stereo not shown) [Compound 5] | < 2000 nM
6 | O=C(NC1Cc2ccc(S(=O)(=O)Nc3nccs3)cc2C1)c1ccc(C(F)(F)F)cc1 (stereo not shown) [Compound 10] | > 5000 nM
7 | CC(C(=O)NC1Cc2ccc(S(=O)(=O)Nc3nccs3)cc2C1)n1ccc2ccccc21 (stereo not shown) [Compound 17, 2-Indol-1-yl-N-[5-(thiazol-2-ylsulfamoyl)-indan-2-yl]-propionamide] | 2000 to 5000 nM
8 | CC(C)(C)c1ccc(OCC(=O)NC2Cc3ccc(S(=O)(=O)Nc4nccs4)cc3C2)cc1 (stereo not shown) [Compound 12] | < 2000 nM
9 | O=C(CCOc1ccccc1)NC1Cc2ccc(S(=O)(=O)Nc3nccs3)cc2C1 (stereo not shown) [Compound 15] | > 5000 nM
10 | O=C(NC1Cc2ccc(S(=O)(=O)Nc3nccs3)cc2C1)c1c(F)cc(F)cc1F (stereo not shown) [Compound 7] | > 5000 nM
11 | O=C(COc1ccc(Cl)cc1)NC1Cc2ccc(S(=O)(=O)Nc3nccs3)cc2C1 (stereo not shown) [Compound 2] | < 2000 nM
12 | O=C(NC1Cc2ccc(S(=O)(=O)Nc3nccs3)cc2C1)c1cc(F)ccc1F (stereo not shown) [Compound 3] | > 5000 nM
13 | O=C(COc1cccc(Cl)c1)NC1Cc2ccc(S(=O)(=O)Nc3nccs3)cc2C1 (stereo not shown) [Compound 16, 2-(3-Chloro-phenoxy)-N-[5-(thiazol-2-ylsulfamoyl)-indan-2-yl]-acetamide] | < 2000 nM
14 | O=C(NC1Cc2ccc(S(=O)(=O)Nc3nccs3)cc2C1)c1ccc(F)cc1 (stereo not shown) [Compound 6, 4-Fluoro-N-[5-(thiazol-2-ylsulfamoyl)-indan-2-yl]-benzamide] | > 5000 nM
15 | O=C(COc1ccc(F)cc1)NC1Cc2ccc(S(=O)(=O)Nc3nccs3)cc2C1 (stereo not shown) [Compound 13] | 2000 to 5000 nM
16 | O=C(NC1Cc2ccc(S(=O)(=O)Nc3nccs3)cc2C1)c1ccc(Cl)c(Cl)c1 (stereo not shown) [Compound 8] | 2000 to 5000 nM
17 | O=C(NC1Cc2ccc(S(=O)(=O)Nc3nccs3)cc2C1)c1ccccc1F (stereo not shown) [Compound 14] | > 5000 nM
18 | O=C(CCn1ccc2cc(Cl)ccc21)NC1Cc2ccc(S(=O)(=O)Nc3nccs3)cc2C1 (stereo not shown) [Compound 4, 3-(5-Chloro-indol-1-yl)-N-[5-(thiazol-2-ylsulfamoyl)-indan-2-yl]-propionamide] | < 2000 nM
19 | O=C(COc1ccccc1)NC1Cc2ccc(S(=O)(=O)Nc3nccs3)cc2C1 (stereo not shown) [Compound 9] | > 5000 nM
